Assay results as given in patent US20260355199A1, “COMPOSITIONS AND METHODS FOR TREATING OR PREVENTING NONALCOHOLIC STEATOHEPATITIS (NASH), ANOREXIA, DEPRESSION, ENDOMETRIOSIS, AND OTHER DISEASES OR DISORDERS” (priority 2022, published 2026).
Entries after “also recorded” stand apart in the source; their conditions may differ.

Columns and labels:
TET2 = TET2 expression in GT1-7 cells; assay type: cell-based, mouse; settings: 10 μM, 6 h
Method: For Bobcat339 treatment (FIG. 15A and FIG. 15B), GT1-7 cells grown in 24-well plates at 2×10^5 cells/well were incubated with vehicle or Bobcat339 at a final concentration of 10 μM for 6 h, followed by RNA and protein extractions. For TET3 protein stability assay (FIG. 15B), GT1-7 cells in 24-well plates at 2×10^5 cells/well were incubated with vehicle or Bobcat339 at a final concentration of 10 μM for 3 hours, followed by addition of cycloheximide (CHX, Cell Signaling, 2112) at a final concentration of […] in the presence of 10 μM of Bobcat339. Proteins were harvested at 0, 1, 2, and 3 hours after addition of CHX. For TET3 expression restoration experiments (FIG. 15C and FIG. 15D), GT1-7 or SH-SY5Y cells seeded in 24-well plates at 2×10^5 cells/well were infected with Ad-GFP or Ad-TET3 at 4000 gc/cell. Following 16 h of infection, vehicle or Bobcat339 were added at a final concentration of 10 μM. Protein and RNA were isolated 48 h later and analyzed.
GT1-7 and SH-SY5Y cells in 24-well plates were collected by manual scraping in 2×SDS-sample buffer containing 1× Phosphatase inhibitor cocktail (Thermo, 78427) and 1× Protease inhibitor cocktail (Thermo, 78438), followed by heating at 100 °C for 5 min with occasional vortexing. […]

RAW 264.7 cells = test: TUNEL assay in RAW 264.7 cells; assay type: cell-based, mouse; settings: RAW 264.7, 10 μM, 48 h
Method: For TET3 expression restoration experiments, cells seeded in 24-well plates were infected with Ad-GFP or Ad-TET3 at 4000 gc/cell. Following 16 h of infection, vehicle or Bobcat339 were added at a final concentration of 10 μM. Protein and RNA were isolated 48 hours later and analyzed.
These were performed using the In Situ Cell Death Detection Kit (Sigma Aldrich, 12156792910). Briefly, cells were fixed with 4% paraformaldehyde in PBS for 1 h at RT and rinsed with PBS, followed by permeabilization with 0.1% Triton X-100 in 0.1% sodium citrate for 2 min on ice. TUNEL reaction mixture was added and incubation was carried out at 37 °C for 60 min. DAPI was added to counter-stain the cells for 1 min. The slides were coverslipped and scoped using a Keyence BZ-X700 fluorescence microscope.

[1] = system: activity-based anorexia (ABA) mice; test: Activity-based anorexia (ABA) model; assay type: in vivo, mouse
From the text: The importance of AgRP neurons in psychiatric conditions such as anorexia was further underscored by a recent report showing that chemogenetic activation of AgRP neurons in mice during ABA attenuated bodyweight loss with reduction in excessive physical activity (Hickey et al., 2022, Mol Psychiatry). […] Thus, peripubertal female mice were exposed to the ABA paradigm as previously described (Miletta, M. C. et al., 2020, Nature Metabolism, 2:1204-1211). Mice were singly housed at postnatal day 36 (P36) with ad libitum access to food, water, and a running wheel. After 4 days of acclimation at P40, mice were food restricted with free access to food for only 2 h daily for 3 days. At P40 and before the onset of food restriction, mice received first intraperitoneal (i.p.) injection of Bobcat339 or vehicle, with second and third injections performed at P47 and P54, respectively (FIG. 17A).
Bobcat339 powder (Sigma-Aldrich, SML2611) was freshly dissolved in DMSO (vehicle) at a concentration of 50 mg/mL and filtered through a 0.22 micron. It was further diluted with 1×PBS to a final concentration of 0.5 mg/mL before injections. Mice were injected intraperitoneally with Bobcat339 at 1 mg/kg, 2.5 mg/kg, or 4 mg/kg.
On P36, animals were single housed with free access to food and water and 24 h access to a running wheel. After 4 days of acclimation, on P40, all food was removed from the cage and returned only for 2 h daily (free food access from 19:00 to 21:00) and 24 h access to a running wheel for 3 days. On P43, 24 h ad libitum access to food was returned and the running wheel access was blocked to allow the animals to recover. The animals were allowed to recover for at least 1 week before undergoing behavioral testing. Continuous multiday analysis of running wheel activity was recorded using VitalView Data Acquisition System software version 5.1 (Starr Life Science). Food intake was measured after measurement of the food pellets before and after the 2 h food restriction. Body weight was monitored in the morning. Body composition was assessed using EchoMRI analysis.

let-7a = let-7a level in mouse peritoneal macrophages; assay type: cell-based; settings: 10 μM, 48 h
Method: For cultured mouse peritoneal macrophages, cells were primed with 30 ng/ml of TGF-β1 (R&D Systems, 7666-MB0-005) for 48 h (to increase TET3 expression) before Bobcat339 treatment. Bobcat339 (or DMSO) was added at a final concentration of 10 μM, followed by RNA and protein extraction at time points indicated in the figure legends.
For let-7a qPCR, 10 ng of total RNA was reverse transcribed to cDNA in a reaction volume of 10 μl using miRCURY LNA RT Kit (QIAGEN, 339340). Quantitative real-time PCR reactions were carried out using miRCURY LNA SYBR Green PCR Kit (QIAGEN, 339346) and a let-7a-specific primer (Has-Let-7a-5p miRCURY LNA miRNA PCR Assay, QIAGEN, 339306/YP00205727) in a Bio-Rad iCycler. Gene expression levels were normalized against U6 (U6 snRNA v2 miRURY LNA miRNA PCR Assay, QIAGEN, 339306/YPO2119464, QIAGEN).

Structure (SMILES): Nc1nc(=O)n(-c2cccc(-c3ccccc3)c2)cc1Cl [Bobcat339, 4-Amino-1-[1,1′-biphenyl]-3-yl-5-chloro-2(1H)-pyrimidinone]
- TET2 expression (TET2): did not affect TET2 expression
- apoptosis (TUNEL) (RAW 264.7 cells): induced apoptosis; also recorded: a significant increase in apoptotic cell death
- apoptosis (TUNEL) (RAW 264.7 cells; with Ad-TET3): reversed by overexpression of TET3; also recorded: not seen when TET3 was overexpressed
- lethality in the ABA model ([1]; ABA): diminished lethality
- body weight, daily food intake, and running wheel account ([1]; ABA, acclimation): no differences
- body weight ([1]; ABA, food restriction): able to maintain their body weight throughout the experiment
- food intake ([1]; ABA, food restriction): increased feeding; also recorded: a significant increase in food intake
- wheel running ([1]; ABA, food restriction): decreased compulsive running; also recorded: decline in compulsive wheel running
- body composition ([1]; end of the recovery period): No differences in body composition
- onset of appetite-stimulating and anti-stress effects ([1]; i.p.): ≤ 24 h
- duration of appetite-stimulating and anti-stress effects ([1]; single i.p. injection): lasted for at least one week
- therapeutic effect in a mouse model of anorexia ([1]; summary): elicited therapeutic effects in a mouse model of anorexia
- let-7a level (let-7a): higher levels of let-7a
